Experimental findings from patent publication US20090048269A1 (AstraZeneca AB, priority 2007, published 2009) are described below.

Test [1] addresses T1, human ALK5 (Homo sapiens, UniProt P36897).
T1 sequence (P36897 162-503): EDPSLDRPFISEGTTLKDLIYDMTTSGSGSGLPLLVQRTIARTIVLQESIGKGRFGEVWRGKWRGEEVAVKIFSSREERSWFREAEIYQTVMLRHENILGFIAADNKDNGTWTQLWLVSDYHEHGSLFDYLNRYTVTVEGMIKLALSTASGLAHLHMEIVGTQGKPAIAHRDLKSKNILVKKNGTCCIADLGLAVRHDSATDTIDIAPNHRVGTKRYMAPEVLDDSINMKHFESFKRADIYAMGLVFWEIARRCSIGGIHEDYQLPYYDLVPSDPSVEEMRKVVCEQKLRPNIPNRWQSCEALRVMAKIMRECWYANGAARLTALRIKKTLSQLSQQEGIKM
Description: ALK5 Enzyme Assay 2 (fluorescence polarisation probe displacement). Type of test: binding. More on the design: 6His tagged human ALK5 (residues162-503) was grown and purified from insect cells; 6His; made in house; host or cells: insect cells. An outline of the steps: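 Recombinant ALK5 (3 μg/mL) incubated with test compound in 50 mM HEPES pH7.4, 10 mM MgCl2, 1 mM DTT, 0.01% CHAPS. Displacement of a fluorescent quinazoline-based ALK5 probe (50 nM final) in presence of 1 μM ATP read by fluorescence polarisation.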
In general terms: Fluorescence polarisation rises when a labelled molecule tumbles more slowly, as on binding a larger partner.

In test [2] the target is T1, human ALK5. In words: ALK5 Enzyme Assay 1. More on the design: 6His tagged ALK5 protein (amino acids 162-503) expressed in insect cells; 6His; made in house; host or cells: insect cells. Type of test: biochemical. The procedure:
This assay measures the ability of a compound to bind to and inhibit the activity of ALK5 protein in vitro. […] Assay measurements were performed in assay buffer comprising 60 mM HEPES pH 7.4, 3 mM MgCl2, 3 mM MnCl2, 3 μM Na orthovanadate, 1.2 mM DTT and 0.05% PEG2000. […] Reactions were performed in the presence of 200 μg/mL casein (Sigma-Aldrich C4765-10ML), 200 ng/mL ALK5, 0.5 μM ATP (Sigma-Aldrich A7699), 1 μCi/mL γ-33P ATP. Following addition of casein, ATP and compound, reactions were initiated by adding ALK5 enzyme and reactions run for 90 minutes. After incubation reactions were terminated by addition of 20 μL per well of 50% orthophosphoric acid. 20 minutes after addition of 70% v/v TCA, precipitated protein was transferred to GF/C 96 well plates using a Tomtec harvester with 1.5% orthophosphoric acid. […] All reactions were performed under linear kinetics.

The mark [3] stands for this setting: read-out: EAA2: activity (μM) using Enzyme Assay 2.
[4] abbreviates: read-out: EAA: activity (μM) using Enzyme Assay 1.

Each structure is given as a SMILES string. Values joined by “and” are separate entries in the source; they are usually repeats but may differ in a detail not shown here. Equal entries are not always repeated.

On to `COc1cc(Nc2cc(Oc3cccnc3-c3ccc(F)cc3)ccn2)cc(OC)c1OC` [Example 52, 4-[2-(4-Fluorophenyl)pyridin-3-yl]oxy-N-(3,4,5-trimethoxy-phenyl)pyridin-2-amine], for which the IC50 stood at 0.0329 µM in test [1] (setting [3]) and 0.0156 µM in test [2] (setting [4]).
The corresponding values for `Cc1cc(Oc2ccnc(Nc3ccncc3)c2)c(-c2ccccn2)nc1C` [Example 36, 4-(5,6-Dimethyl-2-pyridin-2-yl-pyridin-3-yl)oxy-N-pyridin-4-yl-pyridin-2-amine] are 0.0515 µM and 0.0632 µM.
Take `COc1cc(Nc2cc(Oc3ccc(C)nc3C)ccn2)cc(OC)c1OC` [Example 7, 4-(2,6-Dimethylpyridin-3-yl)oxy-N-(3,4,5-trimethoxyphenyl)-pyridin-2-amine]: the IC50 in test [1] is 0.0349 µM; in test [2] (EAA: activity (μM) using Enzyme Assay 1), 0.0206 µM.
For the molecule `Cc1cc(Oc2ccnc(Nc3ccccc3)c2)c(-c2ccccn2)nc1C` [Example 24, 4-(5,6-Dimethyl-2-pyridin-2-yl-pyridin-3-yl)oxy-N-phenyl-pyridin-2-amine], the IC50 in test [2] (setting [4]) is 0.00417 µM.
The same measure, in the same setting: the value for `Cc1cc(Oc2ccnc(Nc3ccccn3)c2)c(-c2ccccn2)nc1C` [Example 14, 4-(5,6-Dimethyl-2-pyridin-2-yl-pyridin-3-yl)oxy-N-pyridin-2-yl-pyridin-2-amine] was 0.0255 µM and 0.00856 µM.
As to `COc1cc(Nc2cc(Oc3ccc(C)nc3-c3ccnc4ccccc34)ccn2)cc(OC)c1OC` [Example 170, 4-[6-Methyl-2-(quinolin-4-yl)pyridin-3-yloxy]-N-(3,4,5-trimethoxyphenyl)pyridin-2-amine], the IC50 in test [2] (setting [4]) was 0.615 µM.
Still for that read-out and setting: the value for `COc1ccc(NC(C)=O)cc1Nc1cc(Oc2cc(C)c(C)nc2-c2ccccn2)ccn1` [Example 73, N-(3-{[4-(5,6-Dimethyl-2-pyridin-2-ylpyridin-3-yl)oxypyridin-2-yl]-amino}-4-methoxyphenyl)acetamide] was 0.454 µM.
On the same count and under the same terms, the value for `Cc1ccc(Oc2ccnc(Nc3ccc(C(=O)O)cc3)c2)c(C)n1` [Example 205, Lithium 4-{[4-(2,6-dimethylpyridin-3-yl)oxypyridin-2-yl]-amino}benzoate] was 0.15 µM.
In the case of `CC(=O)Nc1cc(Nc2cc(Oc3ccc(C)nc3C)ccn2)ccc1C` [Example 127, N-(5-{[4-(2,6-Dimethylpyridin-3-yl)oxypyridin-2-yl]amino}-2-methylphenyl)acetamide], in test [1] (setting [3]), the IC50 stood at 0.0145 µM.
As for `Cc1cc(Oc2ccnc(Nc3ccccc3Cl)c2)c(-c2ccccn2)nc1C` [Example 194B, N-(2-Chlorophenyl)-4-(5,6-dimethyl-2-pyridin-2-ylpyridin-3-yl)-oxypyridin-2-amine], the IC50 in test [2] (setting [4]) is 2.8 µM.
With `Cc1ccc(Oc2ccnc(Nc3cccc(C(=O)NC4CC4)c3)c2)c(C)n1` [Example 194A, N-Cyclopropyl-3-{[4-(2,6-dimethylpyridin-3-yl)oxypyridin-2-yl]-amino}benzamide], the IC50 in test [1] (setting [3]) was found to be 0.0457 µM.
The same measure, in the same setting: to `Cc1ccc(Oc2ccnc(Nc3cccc(CN4CCN(S(C)(=O)=O)CC4)c3)c2)c(C)n1` [Example 175, 4-(2,6-Dimethylpyridin-3-yl)oxy-N-{3-[(4-methylsulfonyl-piperazin-1-yl)methyl]phenyl}pyridin-2-amine] belongs 0.00611 µM; to `CCCc1nc(C)ccc1Oc1ccnc(Nc2cc(OC)c(OC)c(OC)c2)c1` [Example 166, 4-(6-Methyl-2-propylpyridin-3-yloxy)-N-(3,4,5-trimethoxy-phenyl)pyridin-2-amine], 0.597 µM.
Consider `Cc1cc(Oc2ccnc(Nc3ccc4cc[nH]c4c3)c2)c(-c2ccccn2)nc1C` [Example 40, N-[4-(5,6-Dimethyl-2-pyridin-2-yl-pyridin-3-yl)-oxypyridin-2-yl]-1H-indol-6-amine], for which, in test [2] (setting [4]), the IC50 was 1.14 µM and 1.11 µM.
Consider `Cc1ccc(Oc2ccnc(Nc3ccc(C(=O)NCCNS(=O)(=O)N(C)C)cc3)c2)c(C)n1` [Example 142, 4-{[4-(2,6-Dimethylpyridin-3-yl)oxypyridin-2-yl]amino}-N-[2-(dimethylsulfamoylamino)ethyl]benzamide], for which the IC50 in test [1] (setting [3]) was determined as 0.0506 µM.
Turning to `Cc1cc(Oc2ccnc(Nc3ccn(C)n3)c2)c(-c2ccccn2)nc1C` [Example 39, 4-(5,6-Dimethyl-2-pyridin-2-yl-pyridin-3-yl)oxy-N-(1-methylpyrazol-3-yl)-pyridin-2-amine], the IC50 in test [2] (setting [4]) is 0.0935 µM.
Consider `Cc1ccc(Oc2ccnc(Nc3ccc(C(N)=O)cc3)c2)c(-c2ccccc2)n1` [Example 151, 4-{[4-(6-Methyl-2-phenylpyridin-3-yl)oxypyridin-2-yl]amino}-benzamide], for which, in test [1] (setting [3]), the IC50 worked out at 0.0137 µM.
Consider `Cc1ccc(Oc2ccnc(Nc3cccc(C(=O)N(C4CC4)C4CCN(C)CC4)c3)c2)c(C)n1` [Example 59, N-Cyclopropyl-3-{[4-(2,6-dimethylpyridin-3-yl)oxypyridin-2-yl]-amino}-N-(1-methylpiperidin-4-yl)benzamide], for which, in test [1] (setting [3]), the IC50 stood at 0.0214 µM.
The same measure, in the same setting: to `Cc1ccc(Oc2ccnc(Nc3cccc(C(=O)N(C4CCOCC4)C4CC4)c3)c2)c(C)n1` [Example 60, N-Cyclopropyl-3-{[4-(2,6-dimethylpyridin-3-yl)oxypyridin-2-yl]-amino}-N-(oxan-4-yl)benzamide] belongs 0.022 µM; to `Cc1ccc(Oc2ccnc(Nc3ccc(CC#N)cc3)c2)c(-c2ccco2)n1` [Example 159, 2-[4-({4-[2-(Furan-2-yl)-6-methylpyridin-3-yl]oxypyridin-2-yl}-amino)phenyl]acetonitrile], 0.00299 µM; to `Cc1ccc(Oc2ccnc(Nc3cccc(CO)c3)c2)c(C)n1` [Example 174, (3-{[4-(2,6-Dimethylpyridin-3-yl)oxypyridin-2-yl]amino}phenyl)-methanol], 0.0113 µM.
Same read-out and setting: to `Cc1ccc(Oc2ccnc(Nc3ccc(OCC(O)CNC(C)C)cc3)c2)c(C)n1` (stereo not drawn) [Example 129, 1-(4-{[4-(2,6-Dimethylpyridin-3-yl)oxypyridin-2-yl]amino}-phenoxy)-3-(propan-2-ylamino)propan-2-ol] belongs 0.103 µM; to `Cc1cc(Oc2ccnc(Nc3ccc(OCCCNC(=O)OC(C)(C)C)cc3)c2)c(-c2ccccn2)nc1C` [Example 196, tert-Butyl N-[3-(4-{[4-(5,6-dimethyl-2-pyridin-2-ylpyridin-3-yl)-oxypyridin-2-yl]amino}phenoxy)propyl]carbamate], 0.00903 µM; to `Cc1ccc(Oc2ccnc(Nc3ccc(C(=O)NCCN4CCOCC4)cc3)c2)c(C)n1` [Example 220, 4-{[4-(2,6-Dimethylpyridin-3-yl)oxypyridin-2-yl]amino}-N-(2-morpholin-4-ylethyl)benzamide], 0.0675 µM.
On the same count and under the same terms, to `Cc1ccc(Oc2ccnc(Nc3ccc(CC#N)cc3)c2)c(-c2ccccn2)n1` [Example 144, 2-(4-{[4-(6-Methyl-2-pyridin-2-ylpyridin-3-yl)oxypyridin-2-yl]-amino}phenyl)acetonitrile] belongs 0.0276 µM.
For the molecule `COC(=O)c1cccc(Nc2cc(Oc3cc(C)c(C)nc3-c3ccccn3)ccn2)c1` [Example 202, Methyl 3-{[4-(5,6-dimethyl-2-pyridin-2-ylpyridin-3-yl)oxypyridin-2-yl]amino}benzoate], in test [1] (setting [3]), the IC50 turned out to be 0.0279 µM.
On to `Cc1ccc(Oc2ccnc(Nc3cccc(C(=O)N4CCN(C)CC4)c3)c2)c(C)n1` [Example 71, [3-{[4-(2,6-Dimethylpyridin-3-yl)oxypyridin-2-yl]amino}phenyl]-(4-methylpiperazin-1-yl)methanone], for which the IC50 in test [1] (setting [3]) amounted to 0.096 µM.
